Holding throughout (type): functional, organism-based
Holding throughout (details): dose 500.0 µg/kg

Test [1] concerns Mus musculus. The test can be described thus: Hypoglycemic activity in sixteen hrs fasted wild type C57BL/6 mouse assessed as reduction in blood glucose level at 500 microg/kg, ip followed by oral glucose at 2 g/Kg and measured for 120 mins by OGTT.
Test [2] relates to Mus musculus. Nature of the test: Hypoglycemic activity in sixteen hrs fasted wild type C57BL/6 mouse assessed as reduction in blood glucose level at 500 microg/kg, ip followed by oral glucose at 2 g/Kg and measured for 150 mins by OGTT.
The subject of test [3] is Mus musculus. Nature of the test: Hypoglycemic activity in sixteen hrs fasted wild type C57BL/6 mouse assessed as increase in insulin concentration at 500 microg/kg, ip followed by oral glucose at 2 g/Kg and measured upto 150 mins by OGTT.
The subject of test [4] is Mus musculus. Nature of the test: Hypoglycemic activity in sixteen hrs fasted wild type C57BL/6 mouse assessed as reduction in glucose concentration at 500 microg/kg, ip followed by oral glucose at 2 g/Kg and measured upto 150 mins by OGTT.

The source made the active and inactive calls. No cut-off for these calls is given here.

Regarding `CCCCCCCCCCCCCCCC(=O)NCCOCCOCC(=O)N[C@@H](CSc1[nH]c2ccccc2c1C[C@H](NC(=O)[C@H](C)NC(=O)[C@@H](NC(=O)[C@H](Cc1ccccc1)NC(=O)[C@H](CCC(=O)O)NC(=O)[C@H](CCCCN)NC(=O)[C@H](C)NC(=O)[C@H](C)NC(=O)[C@H](CCC(N)=O)NC(=O)CNC(=O)[C@H](CCC(=O)O)NC(=O)[C@H](CC(C)C)NC(=O)[C@H](Cc1ccc(O)cc1)NC(=O)[C@H](CO)NC(=O)[C@H](CO)NC(=O)[C@@H](NC(=O)[C@H](CC(=O)O)NC(=O)[C@H](CO)NC(=O)[C@@H](NC(=O)[C@H](Cc1ccccc1)NC(=O)[C@@H](NC(=O)CNC(=O)[C@H](CCC(=O)O)NC(=O)[C@H](C)NC(=O)[C@@H](N)Cc1cnc[nH]1)[C@@H](C)O)[C@@H](C)O)C(C)C)[C@@H](C)CC)C(=O)N[C@@H](CC(C)C)C(=O)N[C@H](C(=O)N[C@@H](CCCCN)C(=O)NCC(=O)N[C@@H](CCCNC(=N)N)C(=O)NCC(=O)O)C(C)C)C(N)=O`, the outcome in test [1] and in test [2] was Active.

Take `CCCCCCCCCCCCCCCC(=O)NCCOCCOCCOCCOCCOCCOCC(=O)N[C@@H](CSc1[nH]c2ccccc2c1C[C@H](NC(=O)[C@H](C)NC(=O)[C@@H](NC(=O)[C@H](Cc1ccccc1)NC(=O)[C@H](CCC(=O)O)NC(=O)[C@H](CCCCN)NC(=O)[C@H](C)NC(=O)[C@H](C)NC(=O)[C@H](CCC(N)=O)NC(=O)CNC(=O)[C@H](CCC(=O)O)NC(=O)[C@H](CC(C)C)NC(=O)[C@H](Cc1ccc(O)cc1)NC(=O)[C@H](CO)NC(=O)[C@H](CO)NC(=O)[C@@H](NC(=O)[C@H](CC(=O)O)NC(=O)[C@H](CO)NC(=O)[C@@H](NC(=O)[C@H](Cc1ccccc1)NC(=O)[C@@H](NC(=O)CNC(=O)[C@H](CCC(=O)O)NC(=O)[C@H](C)NC(=O)[C@@H](N)Cc1cnc[nH]1)[C@@H](C)O)[C@@H](C)O)C(C)C)[C@@H](C)CC)C(=O)N[C@@H](CC(C)C)C(=O)N[C@H](C(=O)N[C@@H](CCCCN)C(=O)NCC(=O)N[C@@H](CCCNC(=N)N)C(=O)NCC(=O)O)C(C)C)C(N)=O`: the result in test [1] and in test [2] was Active.

Take `CC[C@H](C)[C@H](NC(=O)[C@H](Cc1ccccc1)NC(=O)[C@H](CCC(=O)O)NC(=O)[C@H](CCCCN)NC(=O)[C@H](C)NC(=O)[C@H](C)NC(=O)[C@H](CCC(N)=O)NC(=O)CNC(=O)[C@H](CCC(=O)O)NC(=O)[C@H](CC(C)C)NC(=O)[C@H](Cc1ccc(O)cc1)NC(=O)[C@H](CO)NC(=O)[C@H](CO)NC(=O)[C@@H](NC(=O)[C@H](CC(=O)O)NC(=O)[C@H](CO)NC(=O)[C@@H](NC(=O)[C@H](Cc1ccccc1)NC(=O)[C@@H](NC(=O)CNC(=O)[C@H](CCC(=O)O)NC(=O)[C@H](C)NC(=O)[C@@H](N)Cc1c[nH]cn1)[C@@H](C)O)[C@@H](C)O)C(C)C)C(=O)N[C@@H](C)C(=O)N[C@@H](Cc1c[nH]c2ccccc12)C(=O)N[C@@H](CC(C)C)C(=O)N[C@H](C(=O)N[C@@H](CCCCN)C(=O)NCC(=O)N[C@@H](CCCN=C(N)N)C(=O)NCC(=O)O)C(C)C`: the result in test [3] and in test [4] was Active.

(Values after ChEMBL document CHEMBL5120936, “S-Protected Cysteine Sulfoxide-Enabled Tryptophan-Selective Modification with Application to Peptide Lipidation” (ACS Med Chem Lett, 2022).)
